# Results: patent US20120172397A1, “HEXAHYDROCYCLOPENTA[f]INDAZOLE 5-YL ETHANOLS AND DERIVATIVES THEREOF AS SELECTIVE GLUCOCORTICOID RECEPTOR MODULATORS” (MERCK SHARP & DOHME CORP., priority 2009, published 2012)
# Molecular target: T1, glucocorticoid receptor (GR) (Homo sapiens, UniProt P04150)
# T1 construct: Preparation of HeLa Cell Lysate; endogenous in cells; host or cells: HeLa (ATCC) cell lysate supernatant
# T1 sequence (P04150 1-777): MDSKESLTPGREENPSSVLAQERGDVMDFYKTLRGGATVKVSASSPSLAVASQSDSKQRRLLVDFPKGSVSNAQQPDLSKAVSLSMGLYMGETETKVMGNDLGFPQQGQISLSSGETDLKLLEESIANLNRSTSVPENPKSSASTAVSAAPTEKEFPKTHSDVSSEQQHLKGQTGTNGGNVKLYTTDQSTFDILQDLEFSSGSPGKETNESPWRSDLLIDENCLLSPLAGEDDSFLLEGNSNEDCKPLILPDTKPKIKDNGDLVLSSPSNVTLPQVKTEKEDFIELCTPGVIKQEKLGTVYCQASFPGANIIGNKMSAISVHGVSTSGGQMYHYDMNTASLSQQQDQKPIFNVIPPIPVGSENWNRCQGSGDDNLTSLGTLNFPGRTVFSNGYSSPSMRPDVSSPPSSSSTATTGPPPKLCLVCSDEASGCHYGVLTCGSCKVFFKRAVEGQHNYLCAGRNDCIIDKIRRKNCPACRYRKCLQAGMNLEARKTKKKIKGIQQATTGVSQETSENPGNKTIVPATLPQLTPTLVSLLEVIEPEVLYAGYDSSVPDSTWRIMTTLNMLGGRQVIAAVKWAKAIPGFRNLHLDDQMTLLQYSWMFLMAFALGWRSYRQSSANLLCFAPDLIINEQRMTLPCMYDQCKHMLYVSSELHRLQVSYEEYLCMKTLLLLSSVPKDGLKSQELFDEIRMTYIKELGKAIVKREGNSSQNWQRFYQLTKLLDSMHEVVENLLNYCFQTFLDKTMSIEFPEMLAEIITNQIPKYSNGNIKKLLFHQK
# Assay: GR Ligand Binding Assay (BIND), 3H-dexamethasone displacement in HeLa cell lysate
# Details: 3H-DEX trace, 4° C. overnight
# Protocol: Binding Buffer: TEGM (10 mM Tris-HCl, 1 mM EDTA, 10% glycerol, 1 rnM beta-mecaptoethanol, 10 mM Sodium Molybdate, pH 7.2)
# 50% HAP Slurry: Calbiochem Hydroxylapatite, Fast Flow, in 10 mM Iris, pH 8.0 and 1 mM EDTA.
# Wash Buffer: 40 mM Tris, pH7.5, 100 mM KCl, 1 mM EDTA and 1 mM EGTA. 95% EtOH
# Dexmethasone-methyl-^3H, (DEX*); (Amersham cat# TRK645)
# Dexamethasone(DEX) (Sigma, cat# D1756):
# Cells (Hall R. E., et al., European Journal of Cancer, 30A: 484-490 (1994)) HeLa (ATCC) cultured in RPMI 1640 (Gibco 11835-055) containing 20 mM Hepes, 4 mM L-glu, 10 μg/ml of human insulin (Sigma, I-0259), 10% FBS and 20 μg/ml of Gentamicin (Gibco#15710-072) are rinsed twice in PBS. Phenol red-free Trypsin-EDTA is diluted in the same PBS 1:10. The cell layers are rinsed with 1× Trypsin, extra Trypsin is poured out, and the cell layers are incubated at 37° C. for ˜2 min. The flask is tapped and checked for signs of cell detachment. Once the cells begin to slide off the flask, the complete media is added. The cells are counted at this point, then diluted to the appropriate concentration and split into flasks or dishes for further culturing (Usually 1:3 to 1:6 dilution).
# When the cells are 70 to 85% confluent, they are detached as described above, and collected by centrifuging at 1000 g for 10 minutes at 4° C. The cell pellet is washed twice with TEGM (10 mM Tris-HCl, 1 mM EDTA, 10% glycerol, 1 mM beta-mercaptoethanol, 10 mM Sodium Molybdate, pH 7.2). After the final wash, the cells are resuspended in TEGM at a concentration of 10^7 cells/mL. The cell suspension is snap frozen in liquid nitrogen or ethanol/dry ice bath and transferred to −80° C. freezer on dry ice. Before setting up the binding assay, the frozen samples are left on ice-water to just thaw (˜1 hr). Then the samples are centrifuged at 12,500 g to 20,000 g for 30 min at 4° C. The supernatant is used to set-up assay right away. If using 50 μL of supernatant, the test compound can be prepared in 50 μL of the TEGM buffer.
# 1× TEGM buffer is prepared, and the isotope-containing assay mixture is prepared in the following order: EtOH (2% final concentration in reaction), ^3H-DEX (Amersham Biosciences) and 1× TEGM. [e.g. For 100 samples, 200 μL (100×2) of EtOH+4.25 μL of 1:10 ^3H-Dex stock+2300 μL (100×23) 1× TEGM]. The compound is serially diluted, e.g., if starting final conc. is 1 μM, and the compound is in 25 μL of solution, for duplicate samples, 75 μL of 4×1 μM solution is made and 3 μL of 100 μM is added to 72 μL of buffer, and 1:5 serial dilution.
# 25 μL of ^3H-DEX (6 nM) trace and 25 μL compound solution are first mixed together, followed by addition of 50 μL receptor solution. The reaction is gently mixed, spun briefly at about 200 rpm and incubated at 4° C. overnight. 100 μL of 50% HAP slurry is prepared and added to the incubated reaction which is then vortexed and incubated on ice for 5 to 10 minutes. The reaction mixture is vortexed twice more to resuspend HAP while incubating reaction. The samples in 96-well format are then washed in wash buffer using The FilterMate™ Universal Harvester plate washer (Packard). The washing process transfers HAP pellet containing ligand-bound expressed receptor to Unifilter-96 GF/B filter plate (Packard). The HAP pellet on the filter plate is incubated with 50 μL of MICROSCINT (Packard) scintillint for 30 minutes before being counted on the TopCount microscintillation counter (Packard). IC50s are calculated using DEX as a reference.
row,Ki [nM],Compound
1,8.5,"COc1ccc(C(O)C[C@H]2CCC3=Cc4c(cnn4-c4cccnc4)C[C@@]32C)cn1 (stereo partly drawn) [Example 3, 1-(6-methoxypyridin-3-yl)-2-[(4αR,5R)-4α-methyl-1-(pyridin-3-yl)-1,4,4α,5,6,7-hexahydrocyclopenta[f]indazol-5-yl] ethanol]"
2,151,"C[C@]12Cc3cnn(-c4cccnc4)c3C=C1CC[C@@H]2CC(O)c1ccccn1 (single isomer, unassigned) [Example 6b]"
3,4.8,"CC(O)(C[C@H]1CCC2=Cc3c(cnn3-c3cccnc3)C[C@@]21C)c1ccccc1 (single isomer, unassigned) [Example 7b]"
4,0.9,"COc1ccc(C(O)C[C@H]2CCC3=Cc4c(cnn4-c4cccnc4)C[C@@]32C)cc1 (stereo partly drawn) [Example 5, 1-(4-methoxyphenyl)-2-[(4αR,5R)-4α-methyl-1-(pyridin-3-yl)-1,4,4α,5,6,7-hexahydrocyclopenta[f]indazol-5-yl] ethanol]"
5,9,"COc1ccccc1C(O)C[C@H]1CCC2=Cc3c(cnn3-c3cccnc3)C[C@@]21C (single isomer, unassigned) [Example 2b]"
6,3.5,"C[C@]12Cc3cnn(-c4cccnc4)c3C=C1CC[C@@H]2CC(O)c1ccccc1 (single isomer, unassigned) [Example 1a]"
7,8.8,"C[C@]12Cc3cnn(-c4cccnc4)c3C=C1CC[C@@H]2CC(O)c1ccccc1 (single isomer, unassigned) [Example 1b]"
8,346,"C[C@]12Cc3cnn(-c4cccnc4)c3C=C1CC[C@@H]2CC(O)c1ccccn1 (single isomer, unassigned) [Example 6a]"
9,7.3,"COc1ccccc1C(O)C[C@H]1CCC2=Cc3c(cnn3-c3cccnc3)C[C@@]21C (single isomer, unassigned) [Example 2a]"
10,8.4,"COc1cccc(C(O)C[C@H]2CCC3=Cc4c(cnn4-c4cccnc4)C[C@@]32C)c1 (single isomer, unassigned) [Example 4b]"
11,2.3,"CC(O)(C[C@H]1CCC2=Cc3c(cnn3-c3cccnc3)C[C@@]21C)c1ccccc1 (single isomer, unassigned) [Example 7a]"
12,3.6,"COc1cccc(C(O)C[C@H]2CCC3=Cc4c(cnn4-c4cccnc4)C[C@@]32C)c1 (single isomer, unassigned) [Example 4a]"
